From article PMC11905058, “Novel Leech Antimicrobial Peptides, Hirunipins: Real‐Time 3D Monitoring of Antimicrobial and Antibiofilm Mechanisms Using Optical Diffraction Tomography” (Advanced Science, 2025)
Like-named read-outs stand apart in the source and are kept apart here. Residues, ends and D or L forms follow the SMILES beside them. No end group written: not given here.

Assays:
Type in all cases: cell-based
[1] = test system: Escherichia coli [KCTC 1682]
Method: (§1) The MICs of the peptides were measured by the Clinical and Laboratory Standards Institute (CLSI) broth microdilution method, as outlined in a previous study.^[ [26], [27] ^]
(§2) Minimal Inhibitory Concentrations (MICs): Bacteria were grown to mid-logarithmic phase and diluted in Mueller-Hinton broth (MHB) (Difco). The bacterial suspension (1×10^6 CFU/well) was added to a 96-well microtiter plate along with a two-fold serial dilution of samples. The plate was incubated at 37 °C for 24 hours and the bacterial growth inhibition was assessed by measuring the optical density using an ELISA plate reader. The minimum inhibitory concentration (MIC) was defined as the lowest concentration of samples that prevented visible bacterial growth.

[2] = test system: Pseudomonas aeruginosa [KCTC 1637]
Method: as §1, §2

[3] = test system: Staphylococcus aureus [KCTC1621]
Method: as §1, §2

[4] = test system: Staphylococcus epidermidis [KCTC 1917]
Method: as §1, §2

[5] = CLSI broth microdilution in MHB, 1×10^6 CFU/well, 37 °C, 24 h, optical density

LNTPRPELSISQRLLIKNFILII-NH2 [LP14]
>128 µg/mL: Minimum inhibitory concentration (MIC), Escherichia coli [KCTC 1682] ([1]; KCTC 1682, 24 h) | Minimum inhibitory concentration (MIC), Pseudomonas aeruginosa [KCTC 1637] ([2]; KCTC 1637, 24 h) | Minimum inhibitory concentration (MIC), Staphylococcus aureus [KCTC1621] ([3]; KCTC1621, 24 h) | Minimum inhibitory concentration (MIC), Staphylococcus epidermidis [KCTC 1917] ([4]; KCTC 1917, 24 h)

MANPVNSIKRIIKKLKKERKCKPNL [LP18]
>128 µg/mL: Minimum inhibitory concentration (MIC), Escherichia coli [KCTC 1682] ([1]; KCTC 1682, 24 h) | Minimum inhibitory concentration (MIC), Pseudomonas aeruginosa [KCTC 1637] ([2]; KCTC 1637, 24 h) | Minimum inhibitory concentration (MIC), Staphylococcus aureus [KCTC1621] ([3]; KCTC1621, 24 h) | Minimum inhibitory concentration (MIC), Staphylococcus epidermidis [KCTC 1917] ([4]; KCTC 1917, 24 h)

FGQKVNCILNFICYKYLRI LV [LP2, putative AMP predicted from the Hirudo nipponia transcriptome]
>128 µg/mL: Minimum inhibitory concentration (MIC), Escherichia coli [KCTC 1682] [1, 5] | Minimum inhibitory concentration (MIC), Pseudomonas aeruginosa [KCTC 1637] [2, 5] | Minimum inhibitory concentration (MIC), Staphylococcus aureus [KCTC1621] [3, 5] | Minimum inhibitory concentration (MIC), Staphylococcus epidermidis [KCTC 1917] [4, 5]

PKKVRKSFKKLRNFSNKNSNIYGLPA [LP17]
>128 µg/mL: Minimum inhibitory concentration (MIC), Escherichia coli [KCTC 1682] ([1]; KCTC 1682, 24 h) | Minimum inhibitory concentration (MIC), Pseudomonas aeruginosa [KCTC 1637] ([2]; KCTC 1637, 24 h) | Minimum inhibitory concentration (MIC), Staphylococcus aureus [KCTC1621] ([3]; KCTC1621, 24 h) | Minimum inhibitory concentration (MIC), Staphylococcus epidermidis [KCTC 1917] ([4]; KCTC 1917, 24 h)

CC(C)C[C@H](NC(=O)[C@H](CS)NC(=O)[C@@H](NC(=O)CNC(=O)[C@H](CC(=O)O)NC(=O)[C@H](CCC(=O)O)NC(=O)[C@H](CCCCN)NC(=O)[C@H](CCCCN)NC(=O)[C@H](CS)NC(=O)[C@@H](NC(=O)[C@H](CCCNC(=N)N)NC(=O)[C@H](CCCNC(=N)N)NC(=O)[C@@H](N)CCCNC(=N)N)[C@@H](C)O)[C@@H](C)O)C(=O)NCC(=O)N[C@@H](CCCNC(=N)N)C(=O)N[C@@H](CCCCN)C(=O)N[C@H](C(=O)N[C@@H](CCC(N)=O)C(=O)N[C@@H](Cc1ccc(O)cc1)C(=O)N[C@@H](CCCCN)C(=O)N[C@@H](CCCCN)C(=O)N[C@@H](Cc1ccc(O)cc1)C(=O)N[C@@H](CC(C)C)C(=O)N[C@@H](CCC(N)=O)C(=O)N[C@@H](CCCCN)C(=O)N[C@@H](CCCCN)C(N)=O)C(C)C [LP3] (H-RRRTCKKEDGTCLGRKVQYKKYLQKK-NH2; N-terminus and C-terminus assumed)
>128 µg/mL: Minimum inhibitory concentration (MIC), Escherichia coli [KCTC 1682] ([1]; KCTC 1682, 24 h) | Minimum inhibitory concentration (MIC), Pseudomonas aeruginosa [KCTC 1637] ([2]; KCTC 1637, 24 h) | Minimum inhibitory concentration (MIC), Staphylococcus aureus [KCTC1621] ([3]; KCTC1621, 24 h) | Minimum inhibitory concentration (MIC), Staphylococcus epidermidis [KCTC 1917] ([4]; KCTC 1917, 24 h)

CC(C)C[C@H](NC(=O)[C@H](Cc1ccc(O)cc1)NC(=O)[C@H](CCCCN)NC(=O)[C@H](CCCNC(=N)N)NC(=O)[C@H](CCCNC(=N)N)NC(=O)[C@H](CCC(N)=O)NC(=O)[C@@H](NC(=O)[C@H](CC(N)=O)NC(=O)[C@H](CCCNC(=N)N)NC(=O)CNC(=O)[C@@H](NC(=O)[C@H](CS)NC(=O)[C@@H]1CCCN1C(=O)[C@H](CCCCN)NC(=O)[C@H](CO)NC(=O)[C@H](CC(N)=O)NC(=O)[C@H](CC(C)C)NC(=O)[C@H](CCCCN)NC(=O)[C@H](CS)NC(=O)[C@H](CCC(N)=O)NC(=O)[C@H](CCCNC(=N)N)NC(=O)[C@H](CCC(=O)O)NC(=O)[C@H](CCCNC(=N)N)NC(=O)[C@@H](NC(=O)[C@H](Cc1c[nH]c2ccccc12)NC(=O)[C@H](Cc1ccc(O)cc1)NC(=O)CNC(=O)[C@@H](NC(=O)[C@@H](NC(=O)[C@H](CC(=O)O)NC(=O)[C@@H](N)CCCCN)C(C)C)[C@@H](C)O)C(C)C)C(C)C)[C@@H](C)O)C(=O)N[C@@H](CC(N)=O)C(=O)N[C@@H](CCCCN)C(N)=O [LP4] (H-KDVTGYWVRERQCKLNSKPCVGRNTQRRKYLNK-NH2; N-terminus and C-terminus assumed)
>128 µg/mL: Minimum inhibitory concentration (MIC), Escherichia coli [KCTC 1682] ([1]; KCTC 1682, 24 h) | Minimum inhibitory concentration (MIC), Pseudomonas aeruginosa [KCTC 1637] ([2]; KCTC 1637, 24 h) | Minimum inhibitory concentration (MIC), Staphylococcus aureus [KCTC1621] ([3]; KCTC1621, 24 h) | Minimum inhibitory concentration (MIC), Staphylococcus epidermidis [KCTC 1917] ([4]; KCTC 1917, 24 h)

NITDYNKKKVRLLPRFIFPLG-NH2 [LP13]
>128 µg/mL: Minimum inhibitory concentration (MIC), Escherichia coli [KCTC 1682] ([1]; KCTC 1682, 24 h) | Minimum inhibitory concentration (MIC), Pseudomonas aeruginosa [KCTC 1637] ([2]; KCTC 1637, 24 h) | Minimum inhibitory concentration (MIC), Staphylococcus aureus [KCTC1621] ([3]; KCTC1621, 24 h) | Minimum inhibitory concentration (MIC), Staphylococcus epidermidis [KCTC 1917] ([4]; KCTC 1917, 24 h)

VLNVQSIMSWNKRVGGMILNLKT [LP11]
>128 µg/mL: Minimum inhibitory concentration (MIC), Escherichia coli [KCTC 1682] ([1]; KCTC 1682, 24 h) | Minimum inhibitory concentration (MIC), Pseudomonas aeruginosa [KCTC 1637] ([2]; KCTC 1637, 24 h) | Minimum inhibitory concentration (MIC), Staphylococcus aureus [KCTC1621] ([3]; KCTC1621, 24 h) | Minimum inhibitory concentration (MIC), Staphylococcus epidermidis [KCTC 1917] ([4]; KCTC 1917, 24 h)

KKLLKKLEKISKKKKKDKKRGRGSPMTSYAILYDGA [LP10]
>128 µg/mL: Minimum inhibitory concentration (MIC), Escherichia coli [KCTC 1682] ([1]; KCTC 1682, 24 h) | Minimum inhibitory concentration (MIC), Pseudomonas aeruginosa [KCTC 1637] ([2]; KCTC 1637, 24 h) | Minimum inhibitory concentration (MIC), Staphylococcus aureus [KCTC1621] ([3]; KCTC1621, 24 h) | Minimum inhibitory concentration (MIC), Staphylococcus epidermidis [KCTC 1917] ([4]; KCTC 1917, 24 h)

LLAHVSKGFKLSMQKSKKPSLPIKT-NH2 [LP5]
>128 µg/mL: Minimum inhibitory concentration (MIC), Escherichia coli [KCTC 1682] ([1]; KCTC 1682, 24 h) | Minimum inhibitory concentration (MIC), Pseudomonas aeruginosa [KCTC 1637] ([2]; KCTC 1637, 24 h) | Minimum inhibitory concentration (MIC), Staphylococcus aureus [KCTC1621] ([3]; KCTC1621, 24 h) | Minimum inhibitory concentration (MIC), Staphylococcus epidermidis [KCTC 1917] ([4]; KCTC 1917, 24 h)

QKFNGKSYALAKKMKKRQVKFLNRILDQL [LP19]
>128 µg/mL: Minimum inhibitory concentration (MIC), Escherichia coli [KCTC 1682] ([1]; KCTC 1682, 24 h) | Minimum inhibitory concentration (MIC), Pseudomonas aeruginosa [KCTC 1637] ([2]; KCTC 1637, 24 h) | Minimum inhibitory concentration (MIC), Staphylococcus aureus [KCTC1621] ([3]; KCTC1621, 24 h) | Minimum inhibitory concentration (MIC), Staphylococcus epidermidis [KCTC 1917] ([4]; KCTC 1917, 24 h)

IIIIKMHKTRKEKTQSILSAPVGLLTTL [LP7]
>128 µg/mL: Minimum inhibitory concentration (MIC), Escherichia coli [KCTC 1682] ([1]; KCTC 1682, 24 h) | Minimum inhibitory concentration (MIC), Pseudomonas aeruginosa [KCTC 1637] ([2]; KCTC 1637, 24 h) | Minimum inhibitory concentration (MIC), Staphylococcus aureus [KCTC1621] ([3]; KCTC1621, 24 h) | Minimum inhibitory concentration (MIC), Staphylococcus epidermidis [KCTC 1917] ([4]; KCTC 1917, 24 h)

LSKGGFKGKPERAMAHHLKNIRKKLSKSIMKS [LP6]
>128 µg/mL: Minimum inhibitory concentration (MIC), Escherichia coli [KCTC 1682] ([1]; KCTC 1682, 24 h) | Minimum inhibitory concentration (MIC), Pseudomonas aeruginosa [KCTC 1637] ([2]; KCTC 1637, 24 h) | Minimum inhibitory concentration (MIC), Staphylococcus aureus [KCTC1621] ([3]; KCTC1621, 24 h) | Minimum inhibitory concentration (MIC), Staphylococcus epidermidis [KCTC 1917] ([4]; KCTC 1917, 24 h)

CC[C@H](C)[C@H](NC(=O)[C@@H]1CCCN1C(=O)[C@H](Cc1ccccc1)NC(=O)[C@H](CCC(N)=O)NC(=O)[C@H](CO)NC(=O)[C@H](CCCNC(=N)N)NC(=O)[C@@H](N)Cc1ccccc1)C(=O)N[C@@H](CS)C(=O)N[C@@H](CCCCN)C(=O)N[C@@H](CC(N)=O)C(=O)N[C@@H](CC(C)C)C(=O)N[C@H](C(=O)N[C@@H](CC(N)=O)C(=O)N[C@@H](Cc1c[nH]cn1)C(=O)N[C@H](C(=O)N[C@@H](CCCCN)C(=O)N[C@@H](Cc1ccccc1)C(=O)N[C@H](C(=O)N[C@@H](CS)C(=O)N[C@@H](CCC(N)=O)C(=O)N[C@@H](CCCCN)C(=O)N[C@@H](CCCCN)C(=O)N1CCC[C@H]1C(=O)N[C@@H](CC(C)C)C(=O)N[C@@H](CO)C(=O)N[C@@H](CCCCN)C(=O)N[C@@H](CC(C)C)C(=O)N[C@@H](CCSC)C(=O)N[C@@H](CCCCN)C(=O)N[C@@H](CS)C(=O)N[C@@H](CCCCN)C(=O)N[C@@H](CCCCN)C(=O)N[C@@H](C)C(=O)N[C@@H](CC(C)C)C(=O)N[C@@H](CC(=O)O)C(=O)N[C@@H](CCCNC(=N)N)C(=O)O)C(C)C)[C@@H](C)O)C(C)C [LP16] (H-FRSQFPICKNLVNHTKFVCQKKPLSKLMKCKKALDR-OH)
>128 µg/mL: Minimum inhibitory concentration (MIC), Escherichia coli [KCTC 1682] ([1]; KCTC 1682, 24 h) | Minimum inhibitory concentration (MIC), Pseudomonas aeruginosa [KCTC 1637] ([2]; KCTC 1637, 24 h) | Minimum inhibitory concentration (MIC), Staphylococcus aureus [KCTC1621] ([3]; KCTC1621, 24 h) | Minimum inhibitory concentration (MIC), Staphylococcus epidermidis [KCTC 1917] ([4]; KCTC 1917, 24 h)
